In patent US20120151636A1, “Peptides for Stimulating Plant Disease Resistance” (The Regents of the University of California, priority 2009, published 2012):
Entries after “also recorded” stand apart in the source; their conditions may differ.

Key:
Myc-XA21 = biological target: T1, Myc-XA21 (Oryza sativa subsp. indica, UniProt Q1MX30); experiment: Ax21/XA21 binding assay (cross-linking and co-immunoprecipitation); design: species or system rice; settings: 5- to 10-fold excess competitor over HA-tagged AxY^S22; Myc-XA21 leaf extracts
T1 construct: expressed in transfected cells; host or cells: leaf extract of a Kitaake (Oryza sativa ssp. japonica) transgenic rice line carrying Myc-XA21
T1 sequence (Q1MX30 24-1025): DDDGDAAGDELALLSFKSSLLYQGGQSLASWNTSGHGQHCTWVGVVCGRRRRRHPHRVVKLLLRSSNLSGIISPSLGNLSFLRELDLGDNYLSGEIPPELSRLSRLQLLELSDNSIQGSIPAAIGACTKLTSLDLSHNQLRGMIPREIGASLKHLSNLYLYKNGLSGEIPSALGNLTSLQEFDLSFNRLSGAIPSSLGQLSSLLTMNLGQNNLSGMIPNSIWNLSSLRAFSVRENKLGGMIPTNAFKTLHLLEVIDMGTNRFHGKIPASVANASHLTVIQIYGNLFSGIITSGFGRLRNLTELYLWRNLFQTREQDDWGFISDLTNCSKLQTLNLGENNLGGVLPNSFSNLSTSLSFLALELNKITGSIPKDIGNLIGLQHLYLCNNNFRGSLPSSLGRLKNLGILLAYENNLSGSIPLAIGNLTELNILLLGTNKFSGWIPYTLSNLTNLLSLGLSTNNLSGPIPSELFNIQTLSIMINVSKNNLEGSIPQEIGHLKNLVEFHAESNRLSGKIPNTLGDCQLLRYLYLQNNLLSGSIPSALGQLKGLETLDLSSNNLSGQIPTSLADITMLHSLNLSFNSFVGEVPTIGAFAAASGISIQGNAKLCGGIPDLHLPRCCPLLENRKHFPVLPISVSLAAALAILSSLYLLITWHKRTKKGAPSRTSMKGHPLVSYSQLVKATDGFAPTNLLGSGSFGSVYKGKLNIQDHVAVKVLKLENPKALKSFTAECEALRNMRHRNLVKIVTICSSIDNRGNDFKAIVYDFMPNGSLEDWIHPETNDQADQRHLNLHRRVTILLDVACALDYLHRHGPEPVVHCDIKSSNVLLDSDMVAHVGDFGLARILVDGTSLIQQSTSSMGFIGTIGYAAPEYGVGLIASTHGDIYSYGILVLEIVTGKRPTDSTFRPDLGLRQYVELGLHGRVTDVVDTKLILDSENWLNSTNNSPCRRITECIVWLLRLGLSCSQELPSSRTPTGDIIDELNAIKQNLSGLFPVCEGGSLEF
Method: Binding of the C terminal HA tagged AxY^S22 (AxY^S22-HA) to N-terminal tagged Myc XA21 (Myc-XA21) complex was carried out using cross-linked analysis according to methods described previously (C. Zipfel et al., Cell 125, 749 (2006); Z. Bauer, L. Gomez-Gomez, T. Boller, G. Felix, J Biol Chem 276, 45669 (2001); D. Chinchilla, Z. Bauer, M. Regenass, T. Boller, G. Felix, Plant Cell 18, 465 (2006)). Fully expanded rice leaves were harvested from five-week old Myc-XA21 transgenic and Kitaake control plants. Total proteins were extracted from five g of leaf tissue in 10 ml of ice-cold extraction buffer [0.15 M NaCl, 0.01 M Na-phosphate pH 7.2, 2 mM EDTA, 0.1% Triton X-100, 10 mM β-mercaptoethanol, 20 mM NaF, 1 mM PMSF, 1% Protease cocktail (Sigma), 2 μg/ml leupeptin, 2 μg/ml antipain, and 2 μg/ml aprotinin] […] Duplicate protein gel blots were analyzed with anti-Myc and anti-HA antibodies, respectively.

PXO99ΔraxST = tested on: PXO99ΔraxST; design: species or system Xanthomonas oryzae pv. oryzae; settings: in vivo
TP309-XA21 rice leaves = tested on: TP309-XA21 rice leaves; design: species or system Oryza sativa ssp. japonica; settings: in vivo
[1] = biological target: XA21 (in leaves of the TP309-XA21 transgenic rice line 106-17-3-37) (rice) (UniProt Q1MX30); experiment: cell-based or functional assay
OsFLS2 = OsFLS2 (Oryza sativa subsp. japonica, UniProt Q0JA29); settings: in rice; cited from earlier work
Chain of OsFLS2 (Q0JA29 42-1183): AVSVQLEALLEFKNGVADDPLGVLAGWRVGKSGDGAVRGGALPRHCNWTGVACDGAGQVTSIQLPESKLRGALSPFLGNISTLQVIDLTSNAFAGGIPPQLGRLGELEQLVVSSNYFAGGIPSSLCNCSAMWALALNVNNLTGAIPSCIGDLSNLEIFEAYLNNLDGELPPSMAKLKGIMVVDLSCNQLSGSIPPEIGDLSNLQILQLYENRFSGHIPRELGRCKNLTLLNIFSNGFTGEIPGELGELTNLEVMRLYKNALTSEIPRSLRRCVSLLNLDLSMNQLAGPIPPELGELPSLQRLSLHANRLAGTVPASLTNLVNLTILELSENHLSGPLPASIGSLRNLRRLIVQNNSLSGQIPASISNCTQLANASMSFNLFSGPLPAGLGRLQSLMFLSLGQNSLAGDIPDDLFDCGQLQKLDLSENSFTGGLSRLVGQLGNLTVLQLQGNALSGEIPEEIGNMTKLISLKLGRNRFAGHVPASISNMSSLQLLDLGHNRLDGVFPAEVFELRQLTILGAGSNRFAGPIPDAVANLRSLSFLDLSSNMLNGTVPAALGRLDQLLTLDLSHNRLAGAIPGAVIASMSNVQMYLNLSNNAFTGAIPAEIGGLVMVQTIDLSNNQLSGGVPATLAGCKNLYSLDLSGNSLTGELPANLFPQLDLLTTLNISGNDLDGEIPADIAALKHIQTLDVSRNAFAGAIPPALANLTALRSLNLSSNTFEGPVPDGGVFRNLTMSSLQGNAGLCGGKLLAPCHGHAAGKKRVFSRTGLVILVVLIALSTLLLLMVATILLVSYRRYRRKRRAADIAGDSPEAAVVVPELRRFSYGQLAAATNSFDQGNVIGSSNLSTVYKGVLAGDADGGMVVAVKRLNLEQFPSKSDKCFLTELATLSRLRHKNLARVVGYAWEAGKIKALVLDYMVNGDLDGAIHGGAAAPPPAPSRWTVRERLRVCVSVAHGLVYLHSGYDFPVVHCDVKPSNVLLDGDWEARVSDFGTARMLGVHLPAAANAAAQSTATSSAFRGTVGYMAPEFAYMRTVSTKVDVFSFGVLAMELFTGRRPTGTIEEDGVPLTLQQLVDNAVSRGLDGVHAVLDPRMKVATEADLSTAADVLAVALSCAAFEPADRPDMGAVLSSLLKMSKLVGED

Substance: AENLS(sulfated Y)NFVEGDYVRTP [axY^S22]
- effect of competitor on labeling of the 140 kDa band (AxY^S22/XA21 binding) (Myc-XA21): suppressed the labeling of this band
- reduction in PXO99ΔraxST population growth (PXO99ΔraxST): 1000 fold
- triggering of XA21-mediated immunity (growth curve analysis) (PXO99ΔraxST): triggered resistance to PXO99ΔraxST; also recorded: triggers immunity in TP309-XA21 rice
- activation of XA21-mediated immunity (lesion length) (TP309-XA21 rice leaves): activated XA21-mediated immunity; also recorded: sufficient to activate XA21 mediated immunity
- concentration sufficient for PAMP activity (TP309-XA21 rice leaves): 1 µM

Substance: AENLSYNFVEGDYVRTP [axY22]
- triggering of XA21-mediated immunity (growth curve analysis) (PXO99ΔraxST): unable to trigger Xa21-mediated immunity; also recorded: no detectable activity

Substance: Ax21: Activator of Xa21-mediated immunity; 194 aa protein encoded by PXO_03968
- extent of induced resistance (TP309-XA21 rice leaves): robust resistance

Substance: AxY^S22 peptide (no HA tag)
- concentration sufficient for PAMP activity (lesion length in TP309-XA21 rice) [1]: 1 µM
- reduction in PXO99ΔraxST population growth (growth curve analysis) [1]: 1000 fold

Substance: QRLSSGLRINSAKDDAAGLAIS (Acidovorax avenae flg22; listed as Acidovorax avenae) [flg22ave, flg22 from the rice pathogen Acidovorax avenae, reference compound]
- effect of competitor on labeling of the 140 kDa band (AxY^S22/XA21 binding) (Myc-XA21): no effect on AxY^S22/XA21 binding
- concentration that can induce OsFLS2-mediated response (OsFLS2): 0.5 µM
